The values that follow come from patent US10035790B2, “RORγ modulators” (BRISTOL-MYERS SQUIBB COMPANY, priority 2012, dated 2018).

For orientation: IC50 means the concentration at which inhibition is half-maximal.

Molecules are shown by their SMILES.

For this assay, the target named is T1, ligand binding domain of human RORγ (A262-S507) (Homo sapiens, UniProt P51449).
T1 construct: made in house; host or cells: E. coli
T1 sequence (P51449 262-507): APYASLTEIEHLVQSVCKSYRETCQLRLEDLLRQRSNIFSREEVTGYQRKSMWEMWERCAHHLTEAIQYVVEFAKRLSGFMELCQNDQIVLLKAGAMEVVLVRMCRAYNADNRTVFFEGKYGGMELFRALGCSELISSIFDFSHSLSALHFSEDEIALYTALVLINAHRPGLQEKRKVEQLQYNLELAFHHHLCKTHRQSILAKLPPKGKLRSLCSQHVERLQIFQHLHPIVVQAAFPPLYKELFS
As to the kind of experiment: General RORγ SPA binding assay (competition with [3H]25-hydroxycholesterol). The settings on record: RORγ SPA binding assay, inhibition of [3H]25-hydroxycholesterol binding; read-out: IC50. The method in brief:
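N-terminally His-tagged protein was expressed in E. coli and nickel-purified. Then 50 nM protein was preincubated with compound for 15 min at room temperature in PBS with 0.5% fatty acid free BSA, followed by radioligand for 15 min and copper His-tag SPA beads for 30 min. IC50 came from percent inhibition of binding.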
On to `Cc1ncc(/C=N/Oc2cccc(C(F)(F)F)c2)c(C2CCN(C(=O)Cc3c(F)cccc3F)CC2(F)F)n1` (centres unmarked) [Compound B33, (E)-4-(1-(2-(2,6-Difluorophenyl)acetyl)-3,3-difluoropiperidin-4-yl)-2-methylpyrimidine-5-carbaldehyde O-3-(trifluoromethyl)phenyl oxime], for which the IC50 turned out to be 36.7 nM.
On to `C/C(=N/Oc1cccc(OC(F)(F)F)c1)c1cnc(C)nc1C1CCN(C(=O)Cc2c(F)cccc2F)CC1` [Compound B8, (Z)-2-(2,6-difluorophenyl)-1-(4-(2-methyl-5-(1-((3-(trifluoromethoxy)phenoxy)imino)ethyl)pyrimidin-4-yl)piperidin-1-yl)ethanone], for which the half-inhibitory concentration (IC50) amounted to 1500 nM.
The result for `CN(C)c1ncc(C(C)(O)COc2ccnc(C(F)(F)F)n2)c(C2CCN(C(=O)Nc3c(F)cccc3F)CC2)n1` (centres unmarked) [Compound D38, N-(2,6-Difluorophenyl)-4-[2-(dimethylamino)-5-(1-hydroxy-1-methyl-2-{[2-(trifluoromethyl)pyrimidin-4-yl]oxy}ethyl)pyrimidin-4-yl]piperidine-1-carboxamide] reads 25.9 nM.
Next, `Cc1ncc(C(F)(F)CNc2ccnc(C(F)(F)F)n2)c(C2CCN(C(=O)Nc3c(F)cccc3F)CC2)n1` [Compound N18, N-(2,6-Difluorophenyl)-4-[5-(1,1-difluoro-2-{[2-(trifluoromethyl)pyrimidin-4-yl]amino}ethyl)-2-methylpyrimidin-4-yl]piperidine-1-carboxamide]: 16.2 nM; `Cc1cc(C)cc(OCC(C)(F)c2cnc(C)nc2C2CCN(C(=O)Cc3c(F)cccc3F)CC2)c1` (centres unmarked) [Compound E14, 4-{1-[(2,6-Difluorophenyl)acetyl]piperidin-4-yl}-5-{2-[(3,5-dimethylphenyl)oxy]-1-fluoro-1-methylethyl}-2-methylpyrimidine]: 28 nM.
Next, `Cc1nc(C)c(-c2nnc(-c3ccnc(C(F)(F)F)n3)o2)c(C2CCN(S(=O)(=O)Cc3ccccc3F)CC2)n1` [Compound C34, 4-(1-{[(2-Fluorophenyl)methyl]sulfonyl}piperidin-4-yl)-2,6-dimethyl-5-{5-[2-(trifluoromethyl)pyrimidin-4-yl]-1,3,4-oxadiazol-2-yl}pyrimidine]: 87.1 nM; `Cc1cc(C)cc(CNC(=O)c2cnc(C)nc2C2CCN(C(=O)[C@@H](C)c3ccccc3)CC2)c1` [Compound A26, (S)-N-(3,5-dimethylbenzyl)-2-methyl-4-(1-(2-phenylpropanoyl)piperidin-4-yl)pyrimidine-5-carboxamide]: 446 nM; `C/C(=N\Oc1cccc(OC(F)(F)F)c1)c1cnc(C)nc1C1CCN(C(=O)Cc2c(F)cccc2F)CC1` [Compound B7, (E)-2-(2,6-difluorophenyl)-1-(4-(2-methyl-5-(1-((3-(trifluoromethoxy)phenoxy)imino)ethyl)pyrimidin-4-yl)piperidin-1-yl)ethanone]: 10.6 nM.
As to `C/C(=N\Oc1cc(C)nc(C(F)(F)F)n1)c1cnc(C)nc1C1CCN(C(=O)Nc2c(F)cccc2F)CC1` [Compound B42, N-(2,6-difluorophenyl)-4-{2-methyl-5-[(1E)-N-{[6-methyl-2-(trifluoromethyl)pyrimidin-4-yl]oxy}ethanimidoyl]pyrimidin-4-yl}piperidine-1-carboxamide], the IC50 was 151 nM.
Regarding `CCOCC(C)(OCc1cc(C)cc(C)c1)c1cnc(C)nc1C1CCN(C(=O)Cc2c(F)cccc2F)CC1` (centres unmarked) [Compound E2, 2-(2,6-difluorophenyl)-1-(4-(5-(2-((3,5-dimethylbenzyl)oxy)-1-ethoxypropan-2-yl)-2-methylpyrimidin-4-yl)piperidin-1-yl)ethanone], the IC50 is 5.3 nM.
Next, `Cc1nc(N)nc(C2CCN(C(=O)Nc3c(F)cccc3F)CC2)c1C(=O)COc1cccc(C(F)(F)F)n1` [Compound M11, 4-[2-Amino-6-methyl-5-({[6-(trifluoromethyl)pyridin-2-yl]oxy}acetyl)pyrimidin-4-yl]-N-(2,6-difluorophenyl)piperidine-1-carboxamide]: 2.8 nM.
